{"source": "patent US6504005B1", "about": "“Long-acting drugs and pharmaceutical compositions comprising them” (Yeda Research and Development Co. Ltd., priority 1996, dated 2003)", "key": {"[1]": {"system": "Staphylococcus aureus", "settings": "for Antimicrobial potency (%): relative to cephalexin control; for IC50: read-out: Concentration inhibiting 50% of bacterial growth (μM) (IC50)", "procedure": "At the indicated time points, aliquots were withdrawn and analyzed for their potency to arrest growth of Staphylococcus aureus. Bacterial growth was then evaluated by increased turbidity measured spectroscopically at 700 nm."}, "[2]": {"system": "penicillinase"}, "[3]": {"system": "experimental animal models", "settings": "cited from earlier work"}, "[4]": {"system": "chymotrypsin and trypsin", "test": "Proteolysis by a mixture of chymotrypsin and trypsin (analytical HPLC)", "settings": "pH 7.4, 37° C., chymotrypsin and trypsin 0.5% w/w each", "protocol": "Chymotrypsin and trypsin (0.5% w/w, of each) was then added. At the indicated time points aliquots were withdrawn and subjected to analytical HPLC procedure."}, "[5]": {"settings": "background statement; cited from earlier work"}, "[6]": {"test": "Solubility and appearance in aqueous buffer (pH 7.4)"}, "[7]": {"system": "STZ-diabetic rats", "test": "Single subcutaneous administration to STZ-diabetic rats (blood glucose, daily weight gain)", "settings": "STZ rats, single s.c. 1 mg, followed seven days", "protocol": "Diabetes was induced by a single intravenous injection of a freshly prepared solution of streptozotocin (55 mg/kg body weight) in 0.1M citrate buffer (pH 4.5) according to Meyerovitch et al., 1987.\nBlood glucose levels and daily weight gains were followed over a period of seven days.\nGroup C (n=5) received the vehicle only (2.0 ml of 20% DMSO). Blood glucose levels were determined daily."}, "[8]": {"biological_target": "insulin receptor tyrosine kinase (Rattus norvegicus, UniProt P15127)", "sequence (P15127 27-759 limits assumed)": "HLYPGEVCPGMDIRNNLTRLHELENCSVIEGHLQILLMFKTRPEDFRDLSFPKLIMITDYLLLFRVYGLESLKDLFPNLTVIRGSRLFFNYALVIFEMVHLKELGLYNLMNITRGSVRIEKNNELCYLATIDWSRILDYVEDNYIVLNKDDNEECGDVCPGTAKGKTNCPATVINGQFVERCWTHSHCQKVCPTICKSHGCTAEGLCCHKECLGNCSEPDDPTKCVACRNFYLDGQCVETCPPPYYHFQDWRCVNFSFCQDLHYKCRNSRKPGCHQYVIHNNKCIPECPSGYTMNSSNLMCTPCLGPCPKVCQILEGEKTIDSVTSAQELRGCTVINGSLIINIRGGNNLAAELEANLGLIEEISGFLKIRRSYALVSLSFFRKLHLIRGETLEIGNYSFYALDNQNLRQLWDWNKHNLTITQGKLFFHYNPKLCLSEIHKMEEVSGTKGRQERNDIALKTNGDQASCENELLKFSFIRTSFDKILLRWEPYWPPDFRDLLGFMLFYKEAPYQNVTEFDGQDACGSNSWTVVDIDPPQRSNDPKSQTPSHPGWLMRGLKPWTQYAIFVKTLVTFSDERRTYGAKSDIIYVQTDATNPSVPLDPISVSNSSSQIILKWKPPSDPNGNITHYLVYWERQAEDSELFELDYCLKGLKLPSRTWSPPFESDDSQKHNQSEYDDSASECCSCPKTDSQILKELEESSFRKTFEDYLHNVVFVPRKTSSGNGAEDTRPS", "sequence (P15127 764-1383 partner limits assumed)": "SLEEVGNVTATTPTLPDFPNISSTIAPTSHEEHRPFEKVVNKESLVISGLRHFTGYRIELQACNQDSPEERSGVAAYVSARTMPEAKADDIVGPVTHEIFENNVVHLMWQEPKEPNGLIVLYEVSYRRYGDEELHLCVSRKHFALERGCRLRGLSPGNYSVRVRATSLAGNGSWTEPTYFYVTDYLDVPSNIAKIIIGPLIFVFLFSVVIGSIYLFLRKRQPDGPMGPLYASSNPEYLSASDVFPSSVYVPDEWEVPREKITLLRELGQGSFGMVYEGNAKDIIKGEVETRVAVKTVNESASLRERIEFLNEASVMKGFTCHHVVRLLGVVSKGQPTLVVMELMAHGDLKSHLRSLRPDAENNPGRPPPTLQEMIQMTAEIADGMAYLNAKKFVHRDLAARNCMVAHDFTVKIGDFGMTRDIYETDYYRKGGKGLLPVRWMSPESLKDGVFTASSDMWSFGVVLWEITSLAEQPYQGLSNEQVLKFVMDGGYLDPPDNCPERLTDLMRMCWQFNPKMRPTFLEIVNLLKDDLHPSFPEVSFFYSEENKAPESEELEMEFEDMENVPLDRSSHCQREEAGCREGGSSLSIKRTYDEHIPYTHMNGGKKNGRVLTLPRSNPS", "test": "Insulin receptor tyrosine kinase activity, [poly(Glu4Tyr)] phosphorylating assay (cell-free)", "protocol": "Briefly, the liver was homogenized in the presence of proteinase inhibitors, solubilized with 1% Triton X-100, and centrifuged. The supernatant was allowed to pass through a wheat-germ agglutinin (WGA)-agarose column (Sigma). Adsorbed insulin receptor portion was eluted with 0.3M N-acetyl-D-glucose amine in 50 mM HEPES buffer, pH 7.4, containing 0.1% Triton X-100, 10% glycerol, and 0.15M NaCl.\n(iv) Receptor Tyrosine Kinase Activity Measurement\nIn this assay insulin activates its own receptor to phosphorylate a random copolymer containing L-glutamic acid and L-tyrosine at 4:1 molar ratio [Poly(Glu4Tyr)]SEQ ID NO:1. The standard enzyme assay mixture (final volume 60 μl in 50 mM Hepes, pH 7.4-0.1% Triton X-100) contained WGA purified insulin receptor (5μg protein), 20 mM MgCl2, 2 mM MnCl2, 100 μM ATP and varying concentrations (from 1 ng/ml to 10 mg/ml) of insulin or insulin derivative. Following a 30 min preincubation at 22° C., the reaction was initiated by adding Poly(Glu4Tyr) SEQ ID NO:1 (final concentration 0.7 mg/ml), it proceeded for 20 min at 22° C. and was terminated by adding EDTA (20 mM). Phosphotyrosine content in PolyGlu4Tyr was quantitated by a radio-immunoassay procedure using specific monoclonal antibodies to phosphotyrosine (final dilution 1: 100,000) and ^125I-BSA-phosphotyrosine conjugate."}, "[9]": {"system": "normal rats", "test": "Single intraperitoneal administration to normal rats, blood glucose levels", "type": "in vivo", "settings": "single i.p. injection, 3 mg/rat", "protocol": "This assay reflects the post-subcutaneous long-acting feature of insulin (or insulin derivatives) within the circulation. Normal rats received a single intraperitoneal injection of native insulin, NPH-insulin and (Fmoc)2-insulin (3 mg/rat), and their blood glucose levels were monitored over a period of three days.\nBlood glucose levels were followed for two days."}}, "note": "Where two headings read alike, the source gives them in different places."}
{"molecule": "CC1=C(C(=O)O)N2C(=O)[C@@H](NC(=O)[C@H](NC(=O)OCC3c4ccccc4-c4ccccc43)c3ccccc3)[C@H]2SC1", "note": "[Fmoc-cephalexin, N-Fmoc-cephalexin]", "values": [{"measurement": "Antimicrobial potency (%)", "setting": "[1]; after 1 day at pH 7.4, 37° C.", "result": 10, "unit": "%"}, {"measurement": "Antimicrobial potency (%)", "setting": "[1]; after 3 days at pH 7.4, 37° C.", "result": 59, "unit": "%"}, {"measurement": "Antimicrobial potency (%)", "setting": "[1]; after 6 days at pH 7.4, 37° C.", "result": 100, "unit": "%"}, {"measurement": "Antimicrobial potency (%)", "setting": "[1]; after 6 days at pH 7.4, 37° C., listed as N-Fmoc-cephalexin", "result": "about 50%"}, {"measurement": "Antimicrobial potency (%)", "setting": "[1]; no incubation", "result": "~6", "unit": "%"}, {"measurement": "Stability upon incubation", "setting": "[1]; pH 7.4, 37° C.", "result": "significantly more stable"}, {"measurement": "IC50", "setting": "[1]; after 1 day at pH 7.4, 37° C.", "result": 15, "unit": "µM"}, {"measurement": "IC50", "setting": "[1]; after 3 days at pH 7.4, 37° C.", "result": 9, "unit": "µM"}, {"measurement": "IC50", "setting": "[1]; after 6 days at pH 7.4, 37° C.", "result": 4.5, "unit": "µM"}, {"measurement": "IC50", "setting": "[1]; no incubation", "result": 23, "unit": "µM"}, {"measurement": "Stability to hydrolysis by penicillinase", "setting": "[2]", "result": "more stable to hydrolysis by penicillinase than the parent compound"}]}
{"molecule": "CC(C)C[C@H](NC(=O)OCC1c2ccccc2-c2ccccc21)C(=O)O", "note": "[Fmoc-leucine]", "values": [{"measurement": "Index of toxicity", "setting": "[3]", "result": "low index of toxicity"}]}
{"molecule": "Native insulin: Human insulin, native hormone; parent drug and reference", "values": [{"measurement": "Proteolysis t½", "setting": "[4]", "result": 30, "unit": "min"}, {"measurement": "Half-life in plasma", "setting": "[5]", "result": "5 to 6", "unit": "min"}, {"measurement": "Appearance in aqueous buffer (pH 7.4)", "setting": "[6]", "result": "clear"}, {"measurement": "Solubility in aqueous buffer (pH 7.4, mg/ml)", "setting": "[6]", "result": "˜4 or higher mg/ml"}, {"measurement": "Daily weight gain", "setting": "[7]", "result": "0.57±0.08", "unit": "g/rat/day"}, {"measurement": "Biological potency following incubation (2 days, 37° C., pH 8.5)", "setting": "[8]; after 2 days, 37° C., pH 8.5", "result": 100}, {"measurement": "Biological potency (%)", "setting": "[8]; of native insulin potency, before incubation, [poly(Glu4Tyr)] phosphorylating assay", "result": 100, "unit": "%"}, {"measurement": "Concentration for half maximal effect", "setting": "[8]; receptor tyrosine kinase assay", "result": "20 ± 3", "unit": "ng/mL"}, {"measurement": "Period of hypoglycemia / reduced blood glucose", "setting": "[9]", "result": "about 12 hours"}, {"measurement": "Recovery from hypoglycemia, t½", "setting": "[9]", "result": 480, "unit": "min"}]}
